According to EPA's ToxValDB 9.5 (doi:10.2903/j.efsa.2011.2162):
Converted amounts (≈) assume the structure as drawn.

Tests used:
Aphidius rhopalosiphi [1] = conditions: not reported; reproduction
Apis mellifera = conditions: acute; duration: 48 hours; dermal; mortality
Coturnix japonica = conditions: acute; oral; diet; mortality
Cyprinodon variegatus = conditions: acute; duration: 96 hours; mortality
Daphnia magna = conditions: chronic/long-term; duration: 21 days; reproduction
Lepomis macrochirus = conditions: acute; duration: 96 hours; mortality
Oncorhynchus mykiss = conditions: chronic/long-term; duration: 96 days; growth
Tagia sp. = conditions: acute; mortality
Aphidius rhopalosiphi [2] = experiment: LR50; higher = less toxic; conditions: acute; duration: 48 hours; mortality
[3] = reproduction developmental, reproduction

With COP(=S)(OC)SCN1C(=O)c2ccccc2C1=O [Phosmet] the LEL (Aphidius rhopalosiphi [1]) was 1.41 g/ha, the LD50 (Apis mellifera) was 0.22 µg/piece and the LD50 (Colinus virginianus; acute, oral, mortality) was 57 mg/kg. It also gave an NOEC (Colinus virginianus; [3]) of 7.5 mg/kg-day, an LC50 (Coturnix japonica) of 406 mg/kg-day and an LC50 (Cyprinodon variegatus) of 0.17 µg/mL (≈ 0.536 µM). It also gave an NOEC (Daphnia magna) of 0.00078 mg/L, an LC50 (Lepomis macrochirus) of 0.0197 µg/mL (≈ 0.0621 µM) and an NOEC (Oncorhynchus mykiss) of 0.0032 mg/L. It also gave an NOAEL (Rattus norvegicus; acute, neurology) of 4.5 mg/kg-day, an LD50 (Rattus norvegicus; acute, oral, mortality) of 113 mg/kg and an NOAEL (Rattus norvegicus; [3]) of 1 mg/kg-day. For the same compound, the NOAEL (Rattus norvegicus; subchronic, duration: 13 weeks, neurology) was 1.5 mg/kg-day, the NOAEL (Rattus norvegicus; subchronic, duration: 90 days, oral, other) was 2 mg/kg-day and the LC50 (Tagia sp.) was 104 mg/kg. It also gave an LR50 (Aphidius rhopalosiphi [2]) of 1.95 g/ha.
